Data reported in patent US20210038587A1, “METHODS AND COMPOSITIONS FOR TREATING NON-ERK MAPK PATHWAY INHIBITOR-RESISTANT CANCERS” (BIOMED VALLEY DISCOVERIES, INC., priority 2013, published 2021).
pIC50, pKi: −log10 of the molar value. Several values for one entry are separate records, joined by “and”; a condition that tells them apart may be missing. Equal values may be shown once.

What was measured:
[1] = target: JNK2α (Homo sapiens, UniProt P45984); experiment: Kinase counter-screen, Ki; format: biochemical; settings: apparent Ki
Description: (§6) The ATP concentrations were approximately equal to the Km in all assays.

[2] = target: JNK3 (Homo sapiens, UniProt P53779); experiment: Kinase counter-screen, Ki; format: biochemical
Description: as §6

[3] = target: P38δ (Homo sapiens, UniProt O15264); experiment: Kinase counter-screen, Ki; format: biochemical; settings: apparent Ki
Description: as §6

[4] = test system: RKO Parental; experiment: Single agent proliferation assay (CellTiter-Glo, 96 h); format: cell-based
Experimental: (§1) For assessment of drug sensitivity in cell-line models of acquired resistance, drug sensitivity of dose-escalated A375 cells and isogenic RKO cells was assessed in 96-hour proliferation assays. […] For the A375 assays Alamar blue (ThermoFisher) 10% (v/v) was added and incubated for 4 h, and fluorescent product was then detected using a BMG FLUOstar.
(§2) Compounds were prepared from DMSO stocks to give the desired final concentrations. The final DMSO concentration was constant at 0.1%. […] CellTiter-Glo® reagent (Promega, Madison, Wis.) was added according to manufacturer's instructions and luminescence detected using the BMG FLUOstar plate reader (BMG Labtech, Ortenberg, Germany).

[5] = test system: RKO MEK1 (Q56P/+) Clone 1; experiment: as above; format: cell-based; settings: RKO MEK1 Q56P/+ Cl.1
Experimental: as §1
(§3) RKO MEK1 Q56P Isogenic cells were produced by Horizon Discovery (Cambridge, UK; #HD 106-019) using a recombinant AAV-mediated gene targeting strategy. Briefly, rAAV virus was generated following transfection of the appropriate targeting vector and helper vectors in HEK293T cells, purified using an AAV purification kit (Virapur, San Diego, USA) and titrated using qPCR. Parental homozygous RKO cells (homozygous wild type for MEK1) were then infected with rAAV virus and clones that had integrated the selection cassette were identified by G418 selection and expanded. Correctly targeted clones that were heterozygous for knock-in of the MEK1 Q56P point mutation into a single allele were identified by PCR and sequencing.
as §2

[6] = test system: RKO MEK1 (Q56P/+) Clone 2; experiment: as above; format: cell-based; settings: RKO MEK1 Q56P/+ Cl.2
Experimental: as §1, §3, §2

[7] = test system: A375; experiment: Reverse Phase Protein Analysis (RPPA); format: cell-based, human; settings: % change from DMSO (matched cell line)
Experimental: (§4) Control wells were treated with DMSO at 0.1% (v/v) for 6 hours prior to cell lysate generation. Samples were then analyzed using reverse-phase protein microarray technology (Theranostics Health).
(§5) Cell lines with common alterations in BRAF and RAS were assayed: BRAF^V600E mutant lines A375, Colo205, and HT29; KRAS^G12C-mutant cell line MIAPACa-2; KRAS^G13D-mutant cell line HCT116; and AN3Ca with atypical HRAS^F82L mutation. Changes in protein levels are shown as a percentage change from dimethyl sulfoxide (DMSO)-treated parental control (FIG. 32A and Table 23).

[8] = test system: HCT116; experiment: Reverse Phase Protein Analysis (RPPA); format: cell-based, human; settings: % change from DMSO (matched cell line)
Experimental: as §4, §5

[9] = test system: advanced solid tumors; experiment: Phase I study: antitumor response (RECIST v1.1, 18F-FDG-PET); format: in vivo, human
Experimental: For measurement of antitumor response, tumor measurements based on physical examination occurred at baseline and on the first day of each treatment cycle. CT and other assessments were made every 2 to 3 cycles. Findings were assessed in accordance with RECIST v1.1: CR was defined as disappearance of all target lesions; PR was defined as a ≥30% decrease in the sum of the longest diameters of target lesions, taking baseline measurements as reference; stable disease was defined as being of neither sufficient shrinkage to qualify for PR nor sufficient increase to qualify for progressive disease, taking as reference the baseline measurement.

Sequence of JNK3 (P53779 whole entry, species assumed): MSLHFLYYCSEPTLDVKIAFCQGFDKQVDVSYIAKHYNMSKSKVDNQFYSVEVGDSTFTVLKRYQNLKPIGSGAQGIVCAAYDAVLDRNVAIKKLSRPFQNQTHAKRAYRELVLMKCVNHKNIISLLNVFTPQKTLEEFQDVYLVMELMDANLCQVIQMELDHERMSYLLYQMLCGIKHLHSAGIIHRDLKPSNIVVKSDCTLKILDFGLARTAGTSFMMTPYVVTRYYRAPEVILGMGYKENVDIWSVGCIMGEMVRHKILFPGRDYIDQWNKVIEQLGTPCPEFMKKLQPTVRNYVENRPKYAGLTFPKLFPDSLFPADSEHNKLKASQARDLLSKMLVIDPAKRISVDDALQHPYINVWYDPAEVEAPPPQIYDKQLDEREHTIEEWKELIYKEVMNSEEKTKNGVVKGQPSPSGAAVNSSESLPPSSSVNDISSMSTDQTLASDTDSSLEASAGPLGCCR
Sequence of JNK2α (P45984 whole entry): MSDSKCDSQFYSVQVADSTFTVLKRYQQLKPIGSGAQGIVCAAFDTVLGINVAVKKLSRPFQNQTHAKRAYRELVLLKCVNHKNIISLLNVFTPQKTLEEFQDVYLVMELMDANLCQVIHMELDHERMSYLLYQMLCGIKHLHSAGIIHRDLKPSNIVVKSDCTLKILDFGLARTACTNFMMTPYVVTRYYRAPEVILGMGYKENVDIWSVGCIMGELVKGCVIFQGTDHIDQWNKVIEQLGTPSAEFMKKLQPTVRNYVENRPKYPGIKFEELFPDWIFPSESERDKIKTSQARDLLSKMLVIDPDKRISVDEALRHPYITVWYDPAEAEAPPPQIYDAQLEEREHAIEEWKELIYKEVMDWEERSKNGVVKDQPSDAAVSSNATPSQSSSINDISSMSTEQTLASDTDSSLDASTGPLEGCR
Sequence of P38δ (O15264 whole entry): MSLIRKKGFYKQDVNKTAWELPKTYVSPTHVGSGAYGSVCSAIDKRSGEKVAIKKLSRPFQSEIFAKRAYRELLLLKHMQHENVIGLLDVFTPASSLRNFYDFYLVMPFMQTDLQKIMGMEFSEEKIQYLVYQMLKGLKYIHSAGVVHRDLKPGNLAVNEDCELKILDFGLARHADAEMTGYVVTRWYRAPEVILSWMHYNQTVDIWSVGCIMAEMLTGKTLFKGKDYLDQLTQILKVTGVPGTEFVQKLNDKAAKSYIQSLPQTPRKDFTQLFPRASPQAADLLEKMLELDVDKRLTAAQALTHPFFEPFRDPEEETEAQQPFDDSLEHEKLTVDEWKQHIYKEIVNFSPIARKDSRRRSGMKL

## CC(C)Nc1cc(-c2c[nH]c(C(=O)N[C@H](CO)c3cccc(Cl)c3)c2)c(Cl)cn1 [BVD-523]
[1]
  pKi: 6.19
[2]
  pKi: 5.89
[3]
  pKi: 6.62
[4]
  pIC50: 6.70
[5]
  pIC50: 6.77
[6]
  pIC50: 6.74
[7]
  Avg (4ebp1 T70): −31.82%
  Avg (Akt S473): 73.07%
  Avg (Akt): −14.03%
  Avg (Bad S136): 12.31%
  Avg (Bad S155): −21.9%
  Avg (Bak): −3.26%
  Avg (Bax): −6.98%
  Avg (Bcl 2): −12.55%
  Avg (Bcl2 S70): −7.91%
  Avg (Bcl 2 T56): −8.54%
  Avg (Bim): 14.57%
  Avg (CREB S133): −12.65%
  Avg (Caspase 3 CL D175): −8.06%
  Avg (Caspase 7 Cl D198): 3.18%
  Avg (Chk1): 16.94%
  Avg (Chk1 S345): −7.43%
  Avg (Cyclin D1): −81.45%
  Avg (ERK 1 2): −22.91%
  Avg (ERK 1 2 T202 Y204): 43.34%
  Avg (MAK1 S360): 3.35%
  Avg (Mcl1): 10.67%
  Avg (Raptor S792): −10.33%
  Avg (Raptor): −7.77%
  Avg (Rictor): −20.11%
  Avg (Stat1): 1.32%
  Avg (Stat3): 6.02%
  Avg (bad S112): −72.37%
  Avg (c Fos): 4.39%
  Avg (c Myc): 2.56%
  Avg (mTOR S2448): −27.87%
  Avg (mTOR S2481): −3.36%
  Avg (mTOR): 0.2%
  Avg (p70 S6 Kinase): −7.6%
  Avg (p90 RSK S380): −71%
  Avg(S6 Ribo Prot S235 236): −95.3%
  Avg(S6 Ribo Prot S240 244): −91.98%
  Avg(Tuberin TSC2 Y1571): −6.32%
  Avg(p70 S6 Kinase S371 S394): −8.58%
  Avg(p70 S6 Kinase T389 T412): −23.79%
[8]
  Avg (4ebp1 T70): 4.03%
  Avg (Akt S473): −6.14%
  Avg (Akt): 4.41%
  Avg (Bad S136): −11.49%
  Avg (Bad S155): −30.72%
  Avg (Bak): −13.16%
  Avg (Bax): −0.8%
  Avg (Bcl 2): −3.59%
  Avg (Bcl2 S70): −8.23%
  Avg (Bcl 2 T56): −8.36%
  Avg (Bim): 12.44%
  Avg (CREB S133): −30.64%
  Avg (Caspase 3 CL D175): −10.11%
  Avg (Caspase 7 Cl D198): −21.09%
  Avg (Chk1): −11.26%
  Avg (Chk1 S345): −39.65%
  Avg (Cyclin D1): −69.62%
  Avg (ERK 1 2): −29.42%
  Avg (ERK 1 2 T202 Y204): 849.12%
  Avg (MAK1 S360): −13.45%
  Avg (Mcl1): −8.72%
  Avg (Raptor S792): −22.04%
  Avg (Raptor): −7.06%
  Avg (Rictor): −13.05%
  Avg (Stat1): −13.76%
  Avg (Stat3): −5.52%
  Avg (bad S112): −34.27%
  Avg (c Fos): −14.08%
  Avg (c Myc): −11.15%
  Avg (mTOR S2448): −12.78%
  Avg (mTOR S2481): −34.09%
  Avg (mTOR): −11.96%
  Avg (p70 S6 Kinase): −12.86%
  Avg (p90 RSK S380): −31.81%
  Avg(S6 Ribo Prot S235 236): −96.31%
  Avg(S6 Ribo Prot S240 244): −96.26%
  Avg(Tuberin TSC2 Y1571): −29.89%
  Avg(p70 S6 Kinase S371 S394): −16.9%
  Avg(p70 S6 Kinase T389 T412): −28.11%
[9]; 600 mg BID, progressed on prior vemurafenib and dabrafenib/trametinib
  durable partial response, duration of dosing: > 300 days
[9]; 25 evaluable patients, all melanoma with BRAF^V600 mutations
  partial response: 3 patients
[9]; in vivo
  progressive disease at first evaluation: 4 patients
  stable disease: 18 patients
  stable disease for more than 3 months (additional patients): 6 patients
  stable disease for more than 6 months: 6 patients
[9]; other partial responders
  reduction in the sum of target lesions from baseline: 47.0% and 33.6%
[9]; partial responder at 450 mg BID
  reduction in the sum of target lesions from baseline: ~70%
[9]; patient intolerant to other BRAF/MEK inhibitors, ongoing by data cutoff
  duration of partial response: ≥ 313 days
[9]; patient refractory to prior BRAF/MEK inhibitors, ongoing
  duration of partial response: ≥ 294 days
